Read-outs that look alike come from different tables or passages of the source.
What was measured:
[1] = Relative bioavailability study of voxilaprevir amorphous free acid tablets vs Form VI tablets in healthy subjects (fasted, fed); assay type: in vivo, human; conditions: for AUC(0-inf) / Cmax: human, in vivo, oral, 100 mg
Description: Accordingly, a spray dried dispersion of voxilaprevir in the amorphous free acid form was selected for incorporation into the tablet formulation.

[2] = Physical (solid-state) stability, XRPD; assay type: physicochemical; conditions: for tendency to crystallize in the presence of pre-existing crystalline voxilaprevir: spiked SOF/VEL SSD/VOX SSD tablets
Procedure: As described previously, Form VIII of voxilaprevir is characterized by an X-ray powder diffractogram comprising the following peaks (±0.2°): at 7.8, 8.2, and 20.2°2θ, as determined on a diffractometer using Cu-Kα radiation.
Voxilaprevir SSD is hygroscopic, with a reversible weight gain of 11% when cycled between 0% and 90% RH at 25° C.
The impact of voxilaprevir SSD potency on the chemical and physical stability thereof was also evaluated (Table 5). This development study compared the properties of typical voxilaprevir SSD with 50% w/w voxilaprevir/50% w/w copovidone (Lot C) to those of sub-potent voxilaprevir SSD with 40% w/w voxilaprevir/60% w/w copovidone (Lot D) and super-potent voxilaprevir SSD with 60% w/w voxilaprevir/40% w/w copovidone (Lot E). Voxilaprevir SSD was packaged in a designated commercial packaging configuration (i.e., polyethylene bags sealed in aluminum bags with 5% w/w desiccant) and stored for 6 months at both 25° C./60% RH and 40° C./75% RH. […] All samples remained amorphous by XRPD throughout the duration of the study.
The impact of reprocessed voxilaprevir SSD on the chemical and physical stability of voxilaprevir SSD was additionally evaluated. Voxilaprevir was reprocessed (re-dissolved, spray-dried, and secondary dried) twice and packaged in a designated commercial packaging configuration (i.e., polyethylene bags sealed in aluminum bags with 5% w/w desiccant) and stored for 6 months at both 25° C./60% RH and 40° C./75% RH. […] All samples remained amorphous by XRPD throughout the duration of the study.
In some embodiments, the film-coated tablets were packaged in 75 and 100 mL white HDPE bottles (Lots A and B, respectively, as described in Tables 11A, 11B) with 1 g silica gel desiccant canisters and a polyester fiber coil. The 75 and 100 mL HDPE bottles contained fourteen and twenty eight tablets, respectively. […] The packaged tablets (14 and 28 counts) were evaluated for stability at 40° C./75% RH and 25° C./60% RH. Additionally, the 14-count bottles (without cap) were evaluated for stability under open conditions at 40° C./75% RH. […]

[3] = Photostability (light exposure, ICH Q1B); assay type: physicochemical; conditions: tablets film-coated to weight gains of 2.1 to 5.4%, ICH Q1B
Procedure: In some embodiments, and the Examples presented herein, the tablet formulation includes sofosbuvir having Form 6 and, optionally, a trace amount of Form 7.
Tablet cores and film-coated tablets were evaluated per ICH Q1B guidelines with a total of illumination of more than 1.2 million-lux hours and a total irradiance of more than 200 W·hr/m^2.

[4] = Storage stability: appearance, assay/label strength (LS), total impurities/degradation products; assay type: physicochemical; conditions: all conditions
Procedure: In some embodiments, the film-coated tablets were packaged in 75 and 100 mL white HDPE bottles (Lots A and B, respectively, as described in Tables 11A, 11B) with 1 g silica gel desiccant canisters and a polyester fiber coil. The 75 and 100 mL HDPE bottles contained fourteen and twenty eight tablets, respectively. Each HDPE bottle was capped using a white, continuous thread, child-resistant polypropylene screw cap with an […], aluminum-faced line. The packaged tablets (14 and 28 counts) were evaluated for stability at 40° C./75% RH and 25° C./60% RH. Additionally, the 14-count bottles (without cap) were evaluated for stability under open conditions at 40° C./75% RH.
For each of the impact studies, the sofosbuvir/velpatasvir SSD/voxilaprevir SSD tablets were packaged in a designated commercial packaging configuration (28-count, 100 mL HPDE bottle, coil, 1 g desiccant), and stored for 12 weeks at 25° C./60% RH and 40° C./75% RH. Tablets were also packaged in open containers (28-count, 100 mL HPDE bottle without cap) and stored for 4 weeks at 40° C./75% RH and for 1 week at 50° C./92% RH.
The sofosbuvir/velpatasvir SSD/voxilaprevir SSD tablets were packaged in the designated commercial packaging configuration (28-count, 100 mL HPDE bottle, coil, 1 g desiccant), and stored for 6 months at 25° C./60% RH and 40° C./75% RH.

[5] = Tablet dissolution in 50 mM sodium acetate buffer pH 5.0 with 2.0% w/v Polysorbate 80 and 0.001% w/v BHT, 75 rpm, 900 mL, 37° C., USP Type II; assay type: physicochemical; conditions: tablets containing voxilaprevir SSD
Procedure: FIGS. 10-12 depict additional dissolution profiles for the sofosbuvir/velpatasvir SSD/voxilaprevir SSD tablets having the formulation described in Table 13 and which were used in phase 1, 2, and 3 clinical studies, where the dissolution testing was conducted at pH 5.0 acetate buffer containing 2.0% w/v polysorbate 80. Four batches of the sofosbuvir/velpatasvir SSD/voxilaprevir SSD tablets were tested, with Batch A manufactured at 100 kg and Batches B, C and D manufactured at 145 kg. All other aspects of the formulation and manufacturing process were otherwise equivalent. The four batches were packed in the same commercial configuration: 28 count, 100 mL HPDE bottle with 1 g silica gel desiccant canister and a polyester fiber coil. […] Moreover, for Batch A, the amount dissolved at 30 min remained between 98 and 100% for sofosbuvir, between 90 and 92% for velpatasvir SSD, and between 89 and 93% for voxilaprevir SSD. […] For Batch D, the amount dissolved at 30 min remained at 100% for sofosbuvir, between 90 and 91% for velpatasvir SSD, and between 89 and 91% for voxilaprevir SSD. Release of velpatasvir SSD and voxilaprevir SSD from the sofosbuvir/velpatasvir SSD/voxilaprevir SSD tablets associated with all four Batches was complete after 60 minutes.

[6] = Tablet dissolution as a function of medium pH and composition (Apparatus II, 75 rpm, 900 mL, 37° C.); assay type: physicochemical; conditions: Formulation G tablets
[7] = BCS classification; assay type: physicochemical
[8] = Tablet dissolution in 50 mM sodium acetate buffer pH 5.0 with 2.0% w/v Polysorbate 80 and 0.001% w/v BHT, 75 rpm, 900 mL, 37° C., USP Type II; assay type: physicochemical; conditions: for dissolution at 30 minutes: after 4 weeks open at 40° C./75% RH
[9] = Voxilaprevir Form VI single and multiple oral dose pharmacokinetics in healthy subjects; assay type: in vivo, human; conditions: for Cmax / half-life / Tmax / AUC / AUC(0-inf) / AUC(0-t): human, plasma; for Cmax / AUC / AUC(0-inf) / AUC(0-t): mean
Procedure: Pub. No. 2015/0175625 A1. Initial studies were conducted using the crystalline Form VI of voxilaprevir. As described previously, Form VI of voxilaprevir is characterized by an X-ray powder diffractogram comprising the following peaks (±0.2°): at 14.6, 15.4, and 20.0°2θ, as determined on a diffractometer using Cu-Kα radiation. Following single and multiple oral doses of voxilaprevir, Form VI, maximum plasma concentrations occurred between 2.0 and 5.0 hours (median tmax). […] Steady-state concentrations of voxilaprevir, Form VI were achieved after 7 days of once-daily dosing across all dose levels (Table 2).

[10] = 100 mg tablets, healthy subjects
[11] = Amorphous Free Acid 100 mg, healthy subjects, fed (with moderate food)
[12] = single dose 100 mg, healthy subjects, fasted (N = 15)

CC[C@@H]1[C@@H]2CN(C(=O)[C@H](C(C)(C)C)NC(=O)O[C@@H]3C[C@H]3CCCCC(F)(F)c3nc4ccc(OC)cc4nc3O2)[C@@H]1C(=O)N[C@]1(C(=O)NS(=O)(=O)C2(C)CC2)C[C@H]1C(F)F [Amorphous Free Acid]
higher Cmax compared to tablets (2×50 mg) comprising voxilaprevir, Form VI [1, 10]: ~43% | higher exposure (AUC) compared to tablets (2×50 mg) comprising voxilaprevir, Form VI [1, 10]: approximately 9% | AUC(0-inf) ([1]; Amorphous Free Acid 100 mg, healthy subjects, fasted (N = 15)): 367 ng·h/mL | AUC(0-inf) [1, 11]: 494 ng·h/mL | Cmax [1, 11]: 44.2 ng/mL | AUC(0-inf) [1, 12]: 367 ng·h/mL | Cmax [1, 12]: 32.7 ng/mL | Cmax Geometric Least Square Ratio, Amorphous Free Acid/Form VI GMR ([1]; single dose, fasted): 1.43 | tendency to crystallize in the presence of pre-existing crystalline voxilaprevir [2]: no tendency to crystallize

CC[C@@H]1[C@@H]2CN(C(=O)[C@H](C(C)(C)C)NC(=O)O[C@@H]3C[C@H]3CCCCC(F)(F)c3nc4ccc(OC)cc4nc3O2)[C@@H]1C(=O)N[C@]1(C(=O)NS(=O)(=O)C2(C)CC2)C[C@H]1C(F)F [Voxilaprevir, (1aR,5S,8S,9S,10R,22aR)-5-tert-butyl-N-{(1R,2R)-2-(difluoromethyl)-1-[(1-methylcyclopropanesulfonyl)carbamoyl]cyclopropyl}-9-ethyl-18,18-difluoro-14-methoxy-3,6-dioxo-1,1a,3,4,5,6,9,10,18,19,20,21,22,22a-tetradecahydro-8H-7,10-methanocyclopropa[18,19][1,10,3,6]dioxadiazacyclononadecino[11,12-b]quinoxaline-8-carboxamide]
level of degradation products [3]: 0.0% | total impurities/degradation products ([4]; desiccant/packaging study tablets, 6 months): 0.0% | total impurities/degradation products ([4]; tablet Lots A-D from sub-potent/super-potent VEL SSD and VOX SSD): 0.7% | total impurities/degradation products ([4]; tablets from VEL SSD with 6.0% residual ethanol and VOX SSD with 2.1% residual acetone): 0.0% | total impurities/degradation products ([4]; tablets from VEL SSD with 7.0% and VOX SSD with 3.2% water content): 0.0% | released at 30 minutes [5]: 91% | dissolution at 60 minutes in pH 4.0 and 5.0 containing 2.0% w/v polysorbate 80 [6]: complete dissolution | dissolution in pH 2.0, 4.5 and 6.8 buffers, FaSSIF and FeSSIF [6]: Incomplete dissolution | aqueous solubility, pH dependence [7]: pH-dependent solubility | dissolution at 30 minutes ([8]; SSD potency tablets Lot A): 85% | dissolution at 30 minutes ([8]; SSD potency tablets Lot B): 91% | dissolution at 30 minutes ([8]; SSD potency tablets Lots C and D): 92% | released at 30 minutes ([8]; spiked tablets containing 5% w/w voxilaprevir Form VIII or Form X): 84% | released at 30 minutes ([8]; spiked tablets containing 10% w/w voxilaprevir Form VIII or Form X): 80% | released at 30 minutes ([8]; spiked tablets containing 20% w/w voxilaprevir Form VIII or Form X): 73% | released at 30 minutes ([8]; tablets containing 0% w/w crystalline voxilaprevir): 91% | released at 30 minutes ([8]; tablets containing neat amorphous voxilaprevir free acid (physical mixture with copovidone)): 76%

COC[C@H]1C[C@@H](c2ncc(-c3ccc4c(c3)COc3cc5c(ccc6nc([C@@H]7CC[C@H](C)N7C(=O)[C@@H](NC(=O)OC)C(C)C)[nH]c65)cc3-4)[nH]2)N(C(=O)[C@H](NC(=O)OC)c2ccccc2)C1 [amorphous velpatasvir free base]
tendency to crystallize in the presence of pre-existing crystalline voxilaprevir [2]: no tendency to crystallize

CC[C@@H]1[C@@H]2CN(C(=O)[C@H](C(C)(C)C)NC(=O)O[C@@H]3C[C@H]3CCCCC(F)(F)c3nc4ccc(OC)cc4nc3O2)[C@@H]1C(=O)N[C@]1(C(=O)NS(=O)(=O)C2(C)CC2)C[C@H]1C(F)F [voxilaprevir, Form VI]
Cmax ([9]; oral, 30 mg, multiple dose 30 mg): 7.3 ng/mL | half-life ([9]; oral, 30 mg, multiple dose 30 mg, median): 41 h | Tmax ([9]; oral, 30 mg, multiple dose 30 mg, median, read-out: tmax): 5 h | Cmax ([9]; oral, 30 mg, single dose 30 mg): 3.7 ng/mL | half-life ([9]; oral, 30 mg, single dose 30 mg, median): 9.37 h | Tmax ([9]; oral, 30 mg, single dose 30 mg, median, read-out: tmax): 4 h | Cmax ([9]; oral, 100 mg, multiple dose 100 mg): 46 ng/mL | half-life ([9]; oral, 100 mg, multiple dose 100 mg, median): 30.5 h | Tmax ([9]; oral, 100 mg, multiple dose 100 mg, median, read-out: tmax): 5 h | Cmax ([9]; oral, 100 mg, single dose 100 mg): 17.6 ng/mL | half-life ([9]; oral, 100 mg, single dose 100 mg, median): 36.7 h | Tmax ([9]; oral, 100 mg, single dose 100 mg, median, read-out: tmax): 3 h | Cmax ([9]; oral, 300 mg, multiple dose 300 mg): 155 ng/mL | half-life ([9]; oral, 300 mg, multiple dose 300 mg, median): 27.6 h | Tmax ([9]; oral, 300 mg, multiple dose 300 mg, median, read-out: tmax): 5 h | Cmax ([9]; oral, 300 mg, single dose 300 mg): 34.5 ng/mL | half-life ([9]; oral, 300 mg, single dose 300 mg, median): 35.5 h | Tmax ([9]; oral, 300 mg, single dose 300 mg, median, read-out: tmax): 2 h | AUC ([9]; oral, multiple dose 30 mg): 74.2 ng·h/mL | AUC ([9]; oral, multiple dose 100 mg): 364 ng·h/mL | AUC ([9]; oral, multiple dose 300 mg): 1030 ng·h/mL | AUC(0-inf) ([9]; oral, single dose 30 mg): 56.9 ng·h/mL | AUC(0-t) ([9]; oral, single dose 30 mg): 33 ng·h/mL | AUC(0-inf) ([9]; oral, single dose 100 mg): 245 ng·h/mL | AUC(0-t) ([9]; oral, single dose 100 mg): 188 ng·h/mL | AUC(0-inf) ([9]; oral, single dose 300 mg): 485 ng·h/mL | AUC(0-t) ([9]; oral, single dose 300 mg): 425 ng·h/mL | Tmax ([9]; po, single and multiple oral doses, read-out: time of maximum plasma concentrations (median tmax)): 2 to 5 h | dose linearity of pharmacokinetics ([9]; single and multiple dosing, 30 to 300 mg, healthy subjects): dose-linear pharmacokinetics | physical stability of crystal form ([2]; converted to crystalline Form VIII): physically metastable

From patent US10912814B2, “Combination formulation of three antiviral compounds” (priority 2016, dated 2021)
